Experimental data taken from patent US20230339902A1, “TRICYCLIC LIGANDS FOR DEGRADATION OF IKZF2 OR IKZF4” (C4 Therapeutics, Inc., priority 2020, published 2023).

How the values were obtained:
GSPT1 = target: T1, GSPT1 (Homo sapiens, UniProt P15170+Q96SW2); experiment: GSPT1 degradation assay, HiBiT method (Nano-Glo HiBiT Lytic Assay); assay type: cell-based; settings: 293T.114 (HiBiT-GSPT1) cells, 6 hours
T1 construct: endogenously expressing GSPT1 with HiBiT fusion tag via CRISPR; endogenous in cells; host or cells: 293T.114 (HiBiT-GSPT1), CRISPR knock-in, generated in house
Protocol: Example 62 GSPT1 Degradation Assay
DMEM no-phenol red medium and fetal bovine serum (FBS) were purchased from Gibco (Grand Island, NY, USA). Nano-Glo® HiBiT Lytic Assay System was purchased from Promega (Madison, WI, USA). 293T.114 (HiBiT-GSPT1) cell line was generated in house, endogenously expressing GSPT1 with HiBiT fusion tag via CRISPR. Cell culture flasks and 384-well microplates were acquired from VWR (Radnor, PA, USA).
GSPT1 Degradation Analysis
(§1) GSPT1 degradation was determined based on quantification of luminescent signal using Nano-Glo® HiBiT Lytic Assay kit. Test compounds were added to the 384-well plate from a top concentration of 10 µM with 11 points, half log titration in duplicates. 293T.114 cells were added into 384-well plates at a cell density of 6000 cells per well. The plates were kept at 37° C. with 5% CO2 for 6 hours. The cells treated in the absence of the test compound were the negative control and the cells without Nano-Glo® HiBiT Lytic reagent were the positive control. After 6-hour incubation, Nano-Glo® HiBiT Lytic Assay reagents were added to the designated wells. Luminescence was acquired on EnVision™ Multilabel Reader (PerkinElmer, Santa Clara, CA, USA).

IKZF2 = target: T2, IKZF2 (Homo sapiens, UniProt Q96SW2+Q9UKS7); experiment: IKZF2 degradation assay, HiBiT method (Nano-Glo HiBiT Lytic Assay); assay type: cell-based; settings: JURKAT.21 (IKZF2-HiBiT) cells, 6 hours; for DC50: read-out: HiBiT-Degradation JURKAT.21 IKZF2 6 hours DC50; for Emax: read-out: HiBiT-Degradation JURKAT.21 IKZF2 6 hours Emax
T2 construct: endogenously expressing IKZF2 with HiBiT fusion tag via CRISPR; host or cells: JURKAT.21 (IKZF2-HiBiT), CRISPR knock-in
Source text: Example 61 IKZF2 Degradation Assay
RPMI 1640 Medium without phenol red and fetal bovine serum (FBS) were purchased from Gibco (Grand Island, NY, USA). Nano-Glo® HiBiT Lytic Assay System was purchased from Promega (Madison, WI, USA). JURKAT.21 (IKZF2-HiBiT) cell line, endogenously expressing IKZF2 with HiBiT fusion tag via CRISPR, was purchasing from Synthego (Menlo Park, CA, USA). Cell culture flasks and 384-well microplates were acquired from VWR (Radnor, PA, USA).
IKZF2 Degradation Analysis
as §1, with “IKZF2” for “GSPT1”, “JURKAT.216” for “293T.114”, “5000” for “6000”, “6 or 24” for “6”, “6-hour or 24-hour” for “6-hour”, “cells.” for “designated wells.”

T2 sequence (Q9UKS7 whole entry, the tested form may be a part): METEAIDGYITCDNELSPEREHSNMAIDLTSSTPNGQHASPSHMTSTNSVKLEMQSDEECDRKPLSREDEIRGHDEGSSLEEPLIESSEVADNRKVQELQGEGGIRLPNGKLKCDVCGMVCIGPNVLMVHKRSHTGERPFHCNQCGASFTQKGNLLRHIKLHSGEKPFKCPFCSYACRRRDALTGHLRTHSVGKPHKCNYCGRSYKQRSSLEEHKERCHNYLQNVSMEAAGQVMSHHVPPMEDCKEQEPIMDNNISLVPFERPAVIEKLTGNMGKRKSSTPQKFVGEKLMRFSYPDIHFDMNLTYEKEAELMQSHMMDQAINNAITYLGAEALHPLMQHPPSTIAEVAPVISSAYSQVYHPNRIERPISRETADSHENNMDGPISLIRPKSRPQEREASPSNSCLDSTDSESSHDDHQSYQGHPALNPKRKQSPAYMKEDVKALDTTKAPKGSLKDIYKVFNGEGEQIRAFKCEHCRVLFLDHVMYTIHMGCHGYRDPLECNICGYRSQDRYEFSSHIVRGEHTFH
T2 sequence (Q96SW2 whole entry, the tested form may be a part): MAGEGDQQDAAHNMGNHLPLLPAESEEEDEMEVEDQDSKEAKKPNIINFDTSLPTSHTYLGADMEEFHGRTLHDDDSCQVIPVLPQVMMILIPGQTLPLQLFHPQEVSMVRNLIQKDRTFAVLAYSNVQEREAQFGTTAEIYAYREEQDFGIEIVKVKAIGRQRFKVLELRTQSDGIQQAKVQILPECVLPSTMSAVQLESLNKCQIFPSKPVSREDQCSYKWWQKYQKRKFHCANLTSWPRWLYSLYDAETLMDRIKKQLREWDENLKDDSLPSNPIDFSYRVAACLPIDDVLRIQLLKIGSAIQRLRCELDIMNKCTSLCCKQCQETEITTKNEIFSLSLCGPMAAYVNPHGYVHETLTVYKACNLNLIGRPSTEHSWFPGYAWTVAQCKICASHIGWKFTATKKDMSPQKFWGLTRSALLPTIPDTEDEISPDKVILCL
T2 sequence (Q16531 whole entry partner, the tested form may be a part): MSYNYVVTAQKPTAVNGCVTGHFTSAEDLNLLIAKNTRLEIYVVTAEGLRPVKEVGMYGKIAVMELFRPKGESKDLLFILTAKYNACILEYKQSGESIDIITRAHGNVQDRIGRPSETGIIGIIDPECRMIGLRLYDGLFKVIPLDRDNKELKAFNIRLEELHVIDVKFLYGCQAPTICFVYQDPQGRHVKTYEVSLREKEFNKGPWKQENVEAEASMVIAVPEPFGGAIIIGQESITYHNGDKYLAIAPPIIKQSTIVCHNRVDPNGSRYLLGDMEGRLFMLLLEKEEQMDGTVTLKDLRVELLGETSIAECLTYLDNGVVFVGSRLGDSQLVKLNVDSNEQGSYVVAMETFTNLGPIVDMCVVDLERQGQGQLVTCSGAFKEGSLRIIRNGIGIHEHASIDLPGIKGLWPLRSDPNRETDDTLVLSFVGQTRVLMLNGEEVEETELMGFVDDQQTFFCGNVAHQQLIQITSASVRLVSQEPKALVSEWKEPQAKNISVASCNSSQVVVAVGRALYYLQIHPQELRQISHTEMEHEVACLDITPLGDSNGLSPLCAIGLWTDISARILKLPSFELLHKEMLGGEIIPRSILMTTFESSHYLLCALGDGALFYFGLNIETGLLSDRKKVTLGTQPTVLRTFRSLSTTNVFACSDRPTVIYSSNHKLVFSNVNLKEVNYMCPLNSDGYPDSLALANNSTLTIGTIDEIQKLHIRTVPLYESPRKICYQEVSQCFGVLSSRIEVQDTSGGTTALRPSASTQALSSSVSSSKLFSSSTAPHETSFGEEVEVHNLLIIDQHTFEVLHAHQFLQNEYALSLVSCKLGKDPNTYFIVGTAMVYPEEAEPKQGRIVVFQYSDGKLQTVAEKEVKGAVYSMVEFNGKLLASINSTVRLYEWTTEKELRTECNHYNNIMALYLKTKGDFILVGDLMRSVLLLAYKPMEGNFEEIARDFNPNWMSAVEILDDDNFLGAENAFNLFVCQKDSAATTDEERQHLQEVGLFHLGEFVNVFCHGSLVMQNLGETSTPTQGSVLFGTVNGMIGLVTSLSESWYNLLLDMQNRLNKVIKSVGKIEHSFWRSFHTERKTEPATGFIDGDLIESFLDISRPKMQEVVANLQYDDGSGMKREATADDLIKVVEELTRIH
T1 sequence (P15170 whole entry, the tested form may be a part): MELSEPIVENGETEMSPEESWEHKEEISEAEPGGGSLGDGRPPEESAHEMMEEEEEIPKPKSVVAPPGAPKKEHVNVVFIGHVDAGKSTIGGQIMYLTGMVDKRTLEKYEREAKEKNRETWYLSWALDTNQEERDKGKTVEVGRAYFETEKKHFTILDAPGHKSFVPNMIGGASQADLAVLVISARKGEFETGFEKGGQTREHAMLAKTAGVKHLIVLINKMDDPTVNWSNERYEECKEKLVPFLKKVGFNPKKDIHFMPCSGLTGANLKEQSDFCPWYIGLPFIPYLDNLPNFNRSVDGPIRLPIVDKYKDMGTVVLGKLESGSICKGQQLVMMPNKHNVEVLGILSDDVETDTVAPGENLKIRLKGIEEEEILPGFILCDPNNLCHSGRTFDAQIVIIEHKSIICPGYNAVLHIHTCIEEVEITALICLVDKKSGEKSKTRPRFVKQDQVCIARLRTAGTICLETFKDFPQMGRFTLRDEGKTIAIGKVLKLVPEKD
T1 sequence (Q96SW2 whole entry, the tested form may be a part): as the sequence (Q96SW2 whole entry, the tested form may be a part) above
T1 sequence (Q16531 whole entry partner, the tested form may be a part): as the sequence (Q16531 whole entry partner, the tested form may be a part) above

DC50 (GSPT1) [µM] | Emax (GSPT1) [%] | DC50 (IKZF2) [µM] | Emax (IKZF2) [%] | SMILES
> 10 | 60 to 95 | > 10 | 60 to 95 | O=C1CCC(N2C(=O)c3ccc(CC4CN(Cc5ccccc5)C4)c4cccc2c34)C(=O)N1 (centres unmarked) [Compound 103, 3-[5-[(1-benzylazetidin-3-yl)methyl]-2-oxo-benzo[cd]indol-1-yl]piperidine-2,6-dione]
> 10 | > 95 | > 10 | 60 to 95 | COc1ncc(CN2CCC(c3ccc4c5c(ccnc35)N(C3CCC(=O)NC3=O)C4=O)CC2)cn1 (centres unmarked) [Compound 127, 3-[14-[1-[(2-methoxypyrimidin-5-yl)methyl]-4-piperidyl]-24-oxo-26,31-diazatricyclododeca-1(14),2(15),3(16),4(26),18-pentaen-31-yl]piperidine-2,6-dione]
